# Patent US8609708B2 (Human BioMolecular Research Institute, priority 2003, dated 2013)
# Experiments:
# [1] = system: NNK-dependent tumorigenesis in mice; conditions: mouse, in vivo; cited from earlier work
# CYP2A13 = CYP2A13 (Homo sapiens (Human), UniProt Q16696); conditions: cited from earlier work
# [2] = Mouse liver microsome stability assay; conditions: mouse, microsomes, pH 7.4
# Protocol: The residue was reconstituted in methanol (200 μL), centrifuged at 13,000 rpm for 5 min and the supernatant was analyzed by high-performance liquid chromatography with an Axxi-chrom (straight-phase) silica column (4.6 mm×250 mm, 5 μm) or with a Supelco (reverse-phase) HS F5 pentafluorophenyl column (4.6 mm×250 mm, 5 μm).
# CYP2D6 = CYP2D6 (Homo sapiens (Human), UniProt P10635); experiment: CYP2D6 Vivid blue substrate O-dealkylation inhibition; assay type: biochemical; conditions: Table 4; unit inferred; read-out: 2D6 IC50 ± SD
# in vitro = conditions: human, microsomes, pH 7.4
# CYP2E1 = CYP2E1 (Homo sapiens (Human), UniProt P05181); experiment: CYP2E1 Vivid blue substrate O-dealkylation inhibition; assay type: biochemical; conditions: Table 4; unit inferred; read-out: 2E1 IC50 ± SD
# P450 2A6dH = P450 2A6dH (Homo sapiens (Human), UniProt P11509, INS494HHHH); experiment: Difference spectra of test compounds with N-terminal truncated CYP2A6
# P450 2A6dH, sequence (P11509 other isoform, or with tags, fused parts or gaps 1-28 replaced by MAKKTS/ins HHHH behind 494): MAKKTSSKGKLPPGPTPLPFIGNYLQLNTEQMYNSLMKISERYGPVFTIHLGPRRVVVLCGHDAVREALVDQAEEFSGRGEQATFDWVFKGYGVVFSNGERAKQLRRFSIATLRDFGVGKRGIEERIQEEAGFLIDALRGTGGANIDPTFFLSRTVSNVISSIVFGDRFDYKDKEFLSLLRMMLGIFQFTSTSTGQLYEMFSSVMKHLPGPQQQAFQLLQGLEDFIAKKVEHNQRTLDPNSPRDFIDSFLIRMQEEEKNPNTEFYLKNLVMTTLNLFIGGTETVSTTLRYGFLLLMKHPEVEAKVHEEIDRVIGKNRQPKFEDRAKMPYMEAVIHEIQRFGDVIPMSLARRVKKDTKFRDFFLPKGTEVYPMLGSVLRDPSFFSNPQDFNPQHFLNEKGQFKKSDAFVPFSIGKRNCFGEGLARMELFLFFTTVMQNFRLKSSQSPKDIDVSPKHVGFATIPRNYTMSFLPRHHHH
# Protocol: Subsequently, test compound (in 100% ethanol, 10 μM) was added to both the cuvettes. The maximal ethanol concentration used was 2%. The difference spectra were obtained after the system reached equilibrium (3 min). All spectra were recorded at 25° C.
# CYP2D6, sequence (P10635 whole entry): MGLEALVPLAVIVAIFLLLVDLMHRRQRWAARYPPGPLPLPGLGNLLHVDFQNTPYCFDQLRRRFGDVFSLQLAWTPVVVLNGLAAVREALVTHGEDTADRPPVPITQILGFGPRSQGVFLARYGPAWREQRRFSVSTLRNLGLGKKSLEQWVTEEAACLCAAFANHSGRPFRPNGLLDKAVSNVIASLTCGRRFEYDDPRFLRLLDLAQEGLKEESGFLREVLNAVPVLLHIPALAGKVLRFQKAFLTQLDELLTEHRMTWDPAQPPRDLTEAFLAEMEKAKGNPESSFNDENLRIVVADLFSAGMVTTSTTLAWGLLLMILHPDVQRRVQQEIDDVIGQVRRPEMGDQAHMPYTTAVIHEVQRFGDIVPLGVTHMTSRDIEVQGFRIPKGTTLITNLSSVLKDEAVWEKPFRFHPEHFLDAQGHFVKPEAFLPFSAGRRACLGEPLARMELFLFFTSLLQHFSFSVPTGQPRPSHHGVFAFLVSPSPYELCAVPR
# CYP2E1, sequence (P05181 whole entry, the tested form may be a part): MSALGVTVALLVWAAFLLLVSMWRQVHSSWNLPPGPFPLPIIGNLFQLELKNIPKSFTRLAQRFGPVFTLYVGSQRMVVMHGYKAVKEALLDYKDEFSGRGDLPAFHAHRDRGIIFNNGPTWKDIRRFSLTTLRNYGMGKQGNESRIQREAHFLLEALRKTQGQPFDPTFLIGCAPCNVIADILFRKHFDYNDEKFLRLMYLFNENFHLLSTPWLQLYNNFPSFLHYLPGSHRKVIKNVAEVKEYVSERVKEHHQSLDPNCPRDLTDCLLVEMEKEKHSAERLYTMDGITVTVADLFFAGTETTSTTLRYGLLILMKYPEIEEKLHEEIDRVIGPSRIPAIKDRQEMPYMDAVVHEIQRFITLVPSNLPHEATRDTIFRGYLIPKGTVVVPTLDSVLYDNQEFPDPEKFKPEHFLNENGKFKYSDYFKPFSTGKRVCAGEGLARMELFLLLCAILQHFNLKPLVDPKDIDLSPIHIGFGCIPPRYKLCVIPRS
# CYP2A13, sequence (Q16696 whole entry): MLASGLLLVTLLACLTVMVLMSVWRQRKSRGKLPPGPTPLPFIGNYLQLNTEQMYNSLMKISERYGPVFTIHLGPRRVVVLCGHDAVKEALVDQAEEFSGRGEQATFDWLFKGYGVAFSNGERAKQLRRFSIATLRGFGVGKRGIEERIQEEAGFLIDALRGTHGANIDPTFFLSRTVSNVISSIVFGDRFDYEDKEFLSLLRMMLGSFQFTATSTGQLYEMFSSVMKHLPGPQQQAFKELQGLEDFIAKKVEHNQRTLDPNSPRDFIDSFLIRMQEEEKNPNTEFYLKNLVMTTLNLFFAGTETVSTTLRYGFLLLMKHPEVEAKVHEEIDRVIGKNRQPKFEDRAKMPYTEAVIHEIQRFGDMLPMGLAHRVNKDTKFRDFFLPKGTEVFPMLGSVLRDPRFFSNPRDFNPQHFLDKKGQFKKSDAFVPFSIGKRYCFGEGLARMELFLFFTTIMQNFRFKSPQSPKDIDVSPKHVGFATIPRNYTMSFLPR
smiles,measurement,setting,value
"COc1c2occc2cc2ccc(=O)oc12 [methoxsalen (9-methoxypsoralen), 9-methoxypsoralen]",NNK-dependent tumorigenesis in mice (in words),[1],strongly inhibited
"COc1c2occc2cc2ccc(=O)oc12 [methoxypsoralen (8-methoxypsoralen), 8-methoxypsoralen]",Ki,CYP2A13,0.11 µM
NCc1ccc(-c2cccnc2)s1 [Compound 1a],half-life at 40 μM,[2],60 min
same,IC50,CYP2D6,169 ± 17 µM
same,half-life,in vitro,39 min
same,IC50,CYP2E1,40.2 ± 18.1 µM
same,λmax,P450 2A6dH; difference spectrum,428 nm
same,λmin,P450 2A6dH; difference spectrum,409 nm
same,binding type,P450 2A6dH; difference spectrum with truncated CYP2A6,Type II
